BindingDB's records for doi:10.1021/jm801063n (University of Auckland, 2009)

Assay: Inhibition of recombinant perforin-mediated lysis of human Jurkat T cells by 51Cr release assay

| IC50 [µM] | Compound |
| --- | --- |
| 3.4 | Cc1cc2c(c(=S)[nH]1)C(=O)O/C2=C\c1ccc(-c2ccccc2)s1 [(Z)-6-Methyl-1-((5-phenylthiophen-2-yl)methylene)-4-thioxo-4,5-dihydrofuro[3,4-c]pyridin-3(1H)-one] |
| 8.2 | Cc1cc2c(c(=S)[nH]1)C(=O)O/C2=C\c1cc2ccccc2o1 [(Z)-1-(Benzofuran-2-ylmethylene)-6-methyl-4-thioxo-4,5-dihydrofuro[3,4-c]pyridin-3(1H)-one] |
| > 20 | Cc1cc2c(c(=O)[nH]1)C(=O)N/C2=C\c1ccc(C)o1 [(Z)-6-Methyl-1-((5-methylfuran-2-yl)methylene)-1H-pyrrolo[3,4-c]pyridine-3,4(2H,5H)-dione] |
| 13.1 | COc1ccc2sc(/C=C3\OC(=O)c4c3cc(C)[nH]c4=S)cc2c1 [(Z)-1-((5-Methoxybenzo[b]thiophen-2-yl)methylene)-6-methyl-4-thioxo-4,5-dihydrofuro[3,4-c]pyridin-3(1H)-one] |
| > 20 | Cc1cc2c(c(=S)[nH]1)C(=O)O/C2=C\c1ccc(-c2ccccc2)cc1 [(Z)-1-(Biphenyl-4-ylmethylene)-6-methyl-4-thioxo-4,5-dihydrofuro[3,4-c]pyridin-3(1H)-one] |
| > 20 | Cc1cc2c(c(=S)[nH]1)C(=O)O/C2=C\c1ccoc1 [(Z)-1-(Furan-3-ylmethylene)-6-methyl-4-thioxo-4,5-dihydrofuro[3,4-c]pyridin-3(1H)-one] |
| 1.3 | Cc1cc2c(c(=S)[nH]1)C(=O)O/C2=C\c1cc2ccccc2[nH]1 [(Z)-1-((1H-Indol-2-yl)methylene)-6-methyl-4-thioxo-4,5-dihydrofuro[3,4-c]pyridin-3(1H)-one] |
| > 20 | Cc1cc2c(c(=O)[nH]1)C(=O)N/C2=C\c1ccc(-c2ccccc2)s1 [(Z)-6-Methyl-1-((5-phenylthiophen-2-yl)methylene)-1H-pyrrolo[3,4-c]pyridine-3,4(2H,5H)-dione] |
| > 20 | COc1cc2cc(/C=C3\OC(=O)c4c3cc(C)[nH]c4=S)[nH]c2cc1OCc1ccccc1 [(Z)-1-((6-(Benzyloxy)-5-methoxy-1H-indol-2-yl)methylene)-6-methyl-4-thioxo-4,5-dihydrofuro[3,4-c]pyridin-3(1H)-one] |
